In patent US9962420B2, “Compositions and methods for treating diabetes, fatty liver, cardiopathies, insulin resistance, carbohydrate and fat metabolism” (VALBIOTIS, priority 2014, dated 2018):
Read-outs that look alike come from different tables or passages of the source.

How the values were obtained:
[1] = p<0.01; cited from earlier work
db/db mice [2] = test: Body mass (Tests A); format: in vivo; details: after eight weeks in feed
Method: (§3) The experiments were performed on db/db mice. db/db mice have a mutation of the leptin receptors inducing a cell signaling dysfunction of the latter. […] These mice are insulin resistant, hypertriglyceridemic and glucose-intolerant.
(§4) The evaluations presented were performed just before the supplementation (t=0) and at the end of supplementation (t=8 weeks).

db/db mice [3] = test: Oral test of carbohydrate tolerance, starch force-feeding (Tests A); format: in vivo; details: Colby method
Method: The experiments were performed on db/db mice. db/db mice have a mutation of the leptin receptors inducing a cell signaling dysfunction of the latter. The leptin receptors are highly expressed in the hypothalamus. Mice having a mutation of these receptors cannot efficiently regulate their energy stores. […] These mice are insulin resistant, hypertriglyceridemic and glucose-intolerant. They constitute a pertinent and predictive model especially for studying insulin sensitivity, triglyceridemia, type 2 diabetes and one of its complications, non-alcoholic steatohepatitis (NASH) (Aileen J F King Br J Pharmacol 2012; 166(3):877-894; Sanches S C et al. Biomed Res Int 2015).
The experimental time was nine weeks with a “run-in” of one week followed by eight weeks of supplementation with the plant extracts and a composition X. The male mice were ten weeks old at the start of the treatment.
Nine compositions X were tested. […]
The experimental evaluations focused especially on: • Measurement of the body mass; • Measurement of the fasting glycemia; • The change in glycemia during an oral test of carbohydrate tolerance. After force-feeding with starch (3 g/kg) in the fasted state, the change in glycemia in response to starch was measured in the tail by biopsy just before the force-feeding (t0) and then after 30, 60, 90 and 120 minutes. The area under the curve (AUC) was calculated. […]

db/db mice [4] = test: Fasting glycemia (Tests A); format: in vivo; details: Colby method
Method: as §3, §4

[5] = target: T1, HMG-CoA reductase (Catalytic domain of the human enzyme, recombinant GST fusion protein expressed in E. Coli) (Homo sapiens, UniProt P04035); test: Test of inhibition of HMG-CoA reductase; format: biochemical; details: concentration of sample set at 60 μg/mL
T1 construct: (Catalytic domain of); GST; purchased Sigma
T1 sequence (P04035 340-888 limits assumed): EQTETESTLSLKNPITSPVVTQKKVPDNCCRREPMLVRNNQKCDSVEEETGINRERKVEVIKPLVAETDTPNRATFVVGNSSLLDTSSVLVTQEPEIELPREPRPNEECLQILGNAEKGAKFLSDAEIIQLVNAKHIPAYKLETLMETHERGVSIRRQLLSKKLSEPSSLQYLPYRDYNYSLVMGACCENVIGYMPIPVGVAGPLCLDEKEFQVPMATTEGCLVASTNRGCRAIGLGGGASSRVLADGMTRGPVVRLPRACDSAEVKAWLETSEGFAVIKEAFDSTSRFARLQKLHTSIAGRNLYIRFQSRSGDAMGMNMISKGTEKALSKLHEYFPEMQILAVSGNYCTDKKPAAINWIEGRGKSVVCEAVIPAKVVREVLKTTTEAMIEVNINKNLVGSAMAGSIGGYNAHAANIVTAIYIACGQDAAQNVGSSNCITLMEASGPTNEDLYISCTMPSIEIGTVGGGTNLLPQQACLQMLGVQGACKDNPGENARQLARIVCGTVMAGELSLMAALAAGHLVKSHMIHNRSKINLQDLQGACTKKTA
Method: The molecules were diluted either in 90/10 (v/v) ultra-pure water/DMSO or in 50/50 (v/v) ultra-pure water/ethanol.
The reaction mechanism is as follows: HMG-CoA+2NADPH+2H^+ ? mevalonate+2NADP^++CoA-SH
Disappearance of the substrate NADPH (absorbing at 340 nm) is thus monitored over time.
In a first stage, the solutions need to be prepared from the Sigma® kit: • the 5× buffer supplied must be diluted to a concentration of 1× in ultra-pure water; • the NADPH is dissolved by adding 1× buffer, and then distributed in 100 μL tubes; • the starting enzyme solution is distributed in 25 μL aliquots.
The manipulations were performed directly in 96-well microplates (NUNC96 or [sequence]96). […]
After preparing the plate, the kinetic monitoring was performed in a microplate reader (BMG Labtech) over 16 minutes, 25 seconds, with values taken every 25 seconds at λ=340 nm, i.e. a total of 40 cycles. From this, the percentages of inhibition could be calculated.
In general, irrespective of the test, for a given concentration of an inhibitor, a curve of equation: absorbance=f(time) (in minutes) was prepared. […]
Depending on the types of tests, the percentages of inhibition of the various enzymes were calculated via various methods: • for the tests for inhibition of HMG-CoA reductase and of α-glucosidases, the calculation formula is identical: […]

db/db mice [6] = details: highest dose, same model of db/db mice and similar experimental design; cited from earlier work
db/db mice [7] = test: Glycated hemoglobin HbA1c (Tests B); format: in vivo; details: six weeks in feed, mean ± SEM
Source text: (§1) Using this predictive model of diabetic mice and incorporating composition C10 directly into the rodents' feed (1% Chrysanthellum indicum, 1% Cynara scolymus, 0.1% Vaccinium myrtillus, 0.001% Piper nigrum and 0.6% Olea europaea of the feed), this makes it possible to ensure its “multi-target” efficacy and its large-scale use, since intravenous or intraperitoneal injections are limited to a small number of people, given their mode of administration.
(§2) The experimental time was seven weeks with a “run-in” of one week followed by six weeks of supplementation with composition C10. The male mice were six weeks old at the start of the treatment. The evaluations were made just before the supplementation (t=0), weekly for certain parameters, and at the end of supplementation (t=6 weeks). […]

db/db mice [8] = test: Fasting glycemia (Tests B); format: in vivo; details: six weeks in feed, mean ± SEM
Source text: as §1, §2

db/db mice [9] = test: Insulin sensitivity test (Tests B); format: in vivo; details: six weeks in feed, mean ± SEM
Method: For compositions C7 to C9, an insulin sensitivity test was also performed. […] The change in glycemia in response to the insulin injection was measured in the tail by biopsy just before the injection (t0) and then after 30, 60, 90 and 120 minutes. The area under the curve (AUC) was calculated. A decrease in the AUC reflects a better response to the insulin injection and thus an improvement in the insulin sensitivity. Conversely, an increase in the AUC reflects poorer insulin sensitivity and thus insulin resistance.
as §1, §2

db/db mice [10] = test: Body mass, fat mass and lean mass by MRI (Tests B); format: in vivo; details: six weeks in feed, mean ± SEM
Source text: as §1, §2

db/db mice [11] = test: Hepatic and serum triglycerides, serum HDL cholesterol (Tests B); format: in vivo; details: six weeks in feed, mean ± SEM
Source text: The experimental time was seven weeks with a “run-in” of one week followed by six weeks of supplementation with composition C10. The male mice were six weeks old at the start of the treatment. The evaluations were made just before the supplementation (t=0), weekly for certain parameters, and at the end of supplementation (t=6 weeks).
The experimental evaluations related especially to: • Measurement of the feed intake (t1, t2, t3, t4 and t5 weeks); • Measurement of the body mass (t0, t1, t2, t3, t4, t5, t6 weeks); • Measurement of the fat mass and lean mass by MRI (magnetic resonance imaging; t0 and t6 weeks); • Measurement of the fasting glycemia (t0, t1, t2, t3, t4, t5, t6 weeks); • Measurement of the glycated hemoglobin (HbA1c; t6 weeks); • The insulin sensitivity (test identical to that performed in Tests A; t0 and t6 weeks); • The carbohydrate tolerance (test identical to that performed in Tests A; t0 and t6 weeks); • Measurement of the hepatic and serum triglycerides (t6 weeks); • Measurement of the serum HDL cholesterol (t6 weeks).

SMILES: CC[C@H]1[C@@H](O)[C@@H]2[C@H](CC[C@]3(C)[C@@H]([C@H](C)CCC(=O)O)CC[C@@H]23)[C@@]2(C)CC[C@@H](O)C[C@@H]12 [OCA, obeticholic acid]
- Reduction of circulating HDL cholesterol [1]: -0.2 g/L

SMILES: O=C(/C=C/C=C/c1ccc2c(c1)OCO2)N1CCCCC1 [Composition C5, piperine]
- Body mass (mean ± SEM) (db/db mice [2]): 32.7 ± 1.5 g
- Observed degree of efficacy (in % of the control group), oral test of carbohydrate tolerance, AUC (week 8 − week 0) (db/db mice [3]): −82.3%
- Observed degree of efficacy (in % of the control group), fasting glycemia after eight weeks of treatment (db/db mice [4]): −13.3%

SMILES: CC[C@H](C)C(=O)O[C@H]1C[C@H](O)C=C2C=C[C@H](C)[C@H](CC[C@@H](O)C[C@@H](O)CC(=O)O)[C@H]21 [Pravastatin]
- % of inhibition HMG-CoA reductase [5]: 100%
- inhibition at 60 µg/mL [5]: 100%

SMILES: CSc1ccc(C(=O)/C=C/c2cc(C)c(OC(C)(C)C(=O)O)c(C)c2)cc1 [GFT 505, Elafibranor]
- HbA1c (db/db mice [6]): 6%

SMILES: CN(C)C(=N)N=C(N)N [Metformin, metformin]
- HbA1c (db/db mice [7]): 7.59 ± 0.24%
- Fasting glycemia (db/db mice [8]): 474 ± 24 mg/dL
- Area under the curve measured during an test of insulin sensitivity (AUC) (db/db mice [9]): 32778 ± 3166 mg·min/dL
- Body mass (db/db mice [10]): 40.8 ± 2.1 g
- Serum triglycerides (db/db mice [11]): 256.23 ± 28.19 mg/dL
- HDL cholesterol (db/db mice [11]; serum): 99.21 ± 6.03 mg/dL
